Literature values, collected in patent US8071794B2, “Long wavelength thiol-reactive fluorophores” (Becton, Dickinson and Company, priority 2004, dated 2011).

Details: changing environment from methanol (polar protic) to toluene (non-polar); cited from earlier work

For `CN(C)c1ccc(C2=C(O)C(c3ccc(N(C)C)cc3)=C2O)cc1` [squaraine nucleus III], the “increase in fluorescence quantum yield” value is listed as 20 fold.
